Laboratory results published in patent US20070065443A1, “Fructoseamine 3 kinase and the formation of collagen and elastin” (priority 2004, published 2007).
Values joined by “and” are separate entries in the source; they are usually repeats but may differ in a detail not shown here. Identical values can stand only once.

What was measured:
desmosines [1] = assay: Aorta desmosine levels in diabetic rats; format: in vivo, rat
Method: (§1) For desmosine analysis, the biopsy of tissue is fixated using paraffin. The paraffin is removed from the […] in the microfuge tubes by incubating for 10 minutes with 500 μL of xylene. Five microliters of water is added, the tubes gently vortexed and then microfuged. The xylene is carefully removed, 400 μL of 6N HCl is added to the protein pellet, and the samples hydrolyzed for 24 hours at 100° C. The acid is evaporated in a savant vacuum centrifuge and the hydrolysate redissolved in 400 μL distilled water. The samples are vortexed and microfuged and 20 μL removed from each tube for desmosine analysis by radioimmunoassay. Protein content is determined in 2 μL of the hydrolysate by slightly modifying the ninhydrin method. A stock ninhydrin solution is made by dissolving 10 g of ninhydrin in 375 mL of ethylene glycol and 125 mL of 4N sodium acetate buffer, pH 5.5. For the working solution, 250 μL of 10% stannous chloride suspension is added for every 10 mL of the ninhydrin stock solution. Hydroxyproline is determined in 50 μL of hydrolysate by amino acid analysis.

desmosines [2] = assay: Skin desmosine content in diabetic rats; format: in vivo, rat
Method: as §1
The production of desmosines, a precursor to elastin, can be regulated by compounds that affect the Amadorase pathway. Skin from normal, diabetic, and animals treated with 1-deoxy-1-morpholinofructose were excised and for desmosine content as described in example 29.

[3] = target: T1, Calf skin collagen type I (Bos taurus, UniProt P02453+P02465); assay: 3DG-induced collagen crosslinking and inhibition by arginine (CNBr digest, SDS-PAGE); format: biochemical; conditions: 37° C., 24 hours
T1 construct: Calf skin collagen type I (1.3 mg; Sigma); purchased Sigma; host or cells: calf skin
T1 sequence (P02453 162-1217 limits assumed): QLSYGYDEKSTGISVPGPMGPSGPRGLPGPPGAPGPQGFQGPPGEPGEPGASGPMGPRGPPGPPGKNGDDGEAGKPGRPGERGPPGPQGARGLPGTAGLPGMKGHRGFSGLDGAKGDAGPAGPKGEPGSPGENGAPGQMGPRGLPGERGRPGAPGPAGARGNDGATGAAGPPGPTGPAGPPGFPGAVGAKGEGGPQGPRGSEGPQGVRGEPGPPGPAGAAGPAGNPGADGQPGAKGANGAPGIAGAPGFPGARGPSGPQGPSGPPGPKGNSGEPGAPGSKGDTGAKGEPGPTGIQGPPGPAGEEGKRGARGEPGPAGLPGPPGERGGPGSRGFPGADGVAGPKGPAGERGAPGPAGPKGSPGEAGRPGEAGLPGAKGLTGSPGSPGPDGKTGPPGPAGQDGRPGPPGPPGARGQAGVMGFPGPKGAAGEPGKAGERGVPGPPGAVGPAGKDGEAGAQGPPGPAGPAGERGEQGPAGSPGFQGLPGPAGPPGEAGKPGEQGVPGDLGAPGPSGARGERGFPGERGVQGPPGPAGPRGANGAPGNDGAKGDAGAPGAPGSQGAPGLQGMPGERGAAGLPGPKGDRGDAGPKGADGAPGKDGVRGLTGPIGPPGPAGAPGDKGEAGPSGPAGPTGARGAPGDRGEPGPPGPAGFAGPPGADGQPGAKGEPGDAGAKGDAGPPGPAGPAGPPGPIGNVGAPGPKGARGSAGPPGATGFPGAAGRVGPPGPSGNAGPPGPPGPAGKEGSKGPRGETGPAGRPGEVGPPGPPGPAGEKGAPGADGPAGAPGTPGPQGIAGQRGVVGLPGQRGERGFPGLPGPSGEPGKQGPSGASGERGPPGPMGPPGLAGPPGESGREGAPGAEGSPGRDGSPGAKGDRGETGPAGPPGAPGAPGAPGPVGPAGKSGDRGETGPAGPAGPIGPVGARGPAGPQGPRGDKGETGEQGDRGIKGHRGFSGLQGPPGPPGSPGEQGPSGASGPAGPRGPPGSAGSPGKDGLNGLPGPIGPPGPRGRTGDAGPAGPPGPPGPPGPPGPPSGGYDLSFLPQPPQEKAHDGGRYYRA
T1 sequence (P02465 80-1117 limits assumed): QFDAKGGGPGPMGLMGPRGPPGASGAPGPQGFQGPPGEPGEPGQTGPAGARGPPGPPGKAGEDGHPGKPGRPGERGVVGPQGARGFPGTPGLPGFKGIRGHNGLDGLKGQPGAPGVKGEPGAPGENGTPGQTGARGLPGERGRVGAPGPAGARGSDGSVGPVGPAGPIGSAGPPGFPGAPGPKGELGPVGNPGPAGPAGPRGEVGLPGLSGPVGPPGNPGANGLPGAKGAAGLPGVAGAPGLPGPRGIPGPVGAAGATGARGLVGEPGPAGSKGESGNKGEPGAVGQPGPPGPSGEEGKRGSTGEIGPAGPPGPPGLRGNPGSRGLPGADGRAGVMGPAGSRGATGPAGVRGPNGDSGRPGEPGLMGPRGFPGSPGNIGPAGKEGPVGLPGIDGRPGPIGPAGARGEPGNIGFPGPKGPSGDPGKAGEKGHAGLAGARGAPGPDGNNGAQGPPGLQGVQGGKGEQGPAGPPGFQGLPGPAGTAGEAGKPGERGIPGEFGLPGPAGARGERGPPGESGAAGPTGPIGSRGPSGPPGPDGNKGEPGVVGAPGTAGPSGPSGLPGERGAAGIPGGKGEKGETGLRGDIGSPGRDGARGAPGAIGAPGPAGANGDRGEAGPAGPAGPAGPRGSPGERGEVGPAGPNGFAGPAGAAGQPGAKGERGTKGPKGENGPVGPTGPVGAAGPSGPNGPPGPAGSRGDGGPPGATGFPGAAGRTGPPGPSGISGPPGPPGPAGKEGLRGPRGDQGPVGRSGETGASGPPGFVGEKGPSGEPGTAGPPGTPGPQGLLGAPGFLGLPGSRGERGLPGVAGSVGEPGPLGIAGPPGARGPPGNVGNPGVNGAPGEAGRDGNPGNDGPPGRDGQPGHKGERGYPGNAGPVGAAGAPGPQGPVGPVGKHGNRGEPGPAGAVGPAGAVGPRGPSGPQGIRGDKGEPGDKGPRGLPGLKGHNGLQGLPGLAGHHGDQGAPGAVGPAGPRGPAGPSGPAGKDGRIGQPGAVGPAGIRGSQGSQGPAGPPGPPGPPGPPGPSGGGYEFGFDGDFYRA
Method: Collagen type I was treated with 3DG in the-presence or absence of arginine. The samples were subjected to cyanogen bromide (CNBr) digestion, electrophoresed on a 16.5% SDS Tris-tricine gel, and then the gels were processed using silver stain techniques to visualize the proteins. Lane 1 contains molecular weight marker standards. Lanes 2 and 5 contain 10 and 20 μl of the collagen mixture following CNBr digestion. Lanes 3 and 6 contain the collagen mixture treated with 3DG and then digested with CNBr, and loaded at 10 and 20 μl, respectively. Lanes 4 and 7 contain the mixture of collagen incubated with 5 mM 3DG and 10 mM arginine and then digested with CNBr, and loaded at 10 and 20 μl, respectively.
Collagen I was incubated in the presence or absence of 3DG in vitro. Calf skin collagen type I (1.3 mg; Sigma) was incubated in 20 mM Na-phosphate buffer, pH 7.25, either alone, with 5 mM 3DG, or with 5 mM 3DG plus 10 mM arginine, in a total volume of 1 ml at 37° C. for 24 hours and then frozen and lyophilized. The residue was dissolved in 0.5 ml of 70% formic acid and cyanogen bromide was added (20:1, w/w). This solution was incubated at 30° C. for 18 hours. […] The extent of collagen crosslinking was determined by applying equal volumes of sample and analyzing by SDS-PAGE electrophoresis (16.5% Tris-tricine gel), as determined by the effects of 3DG on the migration of collagen.

Amadorase [4] = conditions: read-out: concentration inhibiting Amadorase by 50%; purified Amadorase, 37° C., 15 minutes
Method: Experiments were performed to test the effect of copper on the activity of the Amadorase enzyme in vitro. Using methods described elsewhere, increasing amounts of copper in the form of CuSO4, was added to an in vitro assay. Purified Amadorase was added to the reaction, incubated at 37° C. for 15 minutes, and the amount of FL3P measured. The graph depicted in FIG. 20 represents percent Amadorase activity as a function of copper concentration.

[5] = Urinary FL, 3DG and 3DF in humans after ingestion of glycated protein (2 g FL); format: in vivo, human; conditions: seven volunteers, 2 gram dose of fructoselysine as glycated protein food
Method: 260 g of casein, 120 g of glucose and 720 ml of water were mixed to give a homogeneous mixture. This mixture was transferred to a metal plate and heated at 65° C. for 68 hours. The resulting cake was then pulverized to a coarse powder. This powder contained 60% protein as determined by the Kjeldahl procedure.
One gram of the powder prepared as in step a., above, was hydrolyzed by refluxing with 6N HCl for 20 hours. The resulting solution was adjusted to pH 1.8 with NaOH solution and diluted to 100 ml. The fructoselysine content was measured on an amino acid analyzer as furosine, the product obtained from acid hydrolysis of fructoselysine. In this way, it was determined that the cake contained 5.5% (w/w) fructoselysine. […]
FL was measured by HPLC with a Waters 996 diode Array using a Waters C18 Free Amino Acid column at […] and a gradient elution system of acetonitrile-methyl alcohol-water (45:15:40) into acetonitrile-sodium acetate-water (6:2:92) at 1 ml/min. Quantitation employed an internal standard of meglumine. 3DF was measured by HPLC after deionization of the sample. […] Quantitation was performed from standard curves obtained daily with synthetic 3DF.
3DG was measured by GC-MS after deionization of the sample. […] Quantitation of 3DG employed selected ion monitoring using an internal standard of U-13C-3DG.

[6] = test system: human dermal fibroblasts acquired from a patient with scleroderma; assay: Collagen 1A1 mRNA by Northern blot in scleroderma fibroblasts; format: cell-based; conditions: 5 mM, 72 hours, normalized to GAPDH mRNA
Method: In these experiments 5 mM FL was added to cultured human dermal fibroblasts acquired from a patient with scleroderma. After 72 hours, cells were collected and mRNA isolated. Equal amounts of each mRNA preparation was separated by electrophoresis and the amount of collagen 1A1 mRNA detected by Northern blot using a radioactive probe to the collagen 1A1 mRNA as shown in FIG. 19. A phosphoimager was used to quantify the amount of collagen type 1 mRNA. A radioactive probe to the GAPDH mRNA was used as a control to normalize the level of collagen 1A1 mRNA in each sample. The level of collagen 1A1 RNA was decreased by 40%.

Amadorase [7] = assay: In vitro Amadorase-dependent production of 3DG from FL; format: biochemical; conditions: FL 2.6 mM
3-deoxyglucosone = assay: Reduction of urinary and plasma 3-deoxyglucosone by polyollysines and meglumine; format: in vivo, rat; conditions: for reduction of plasma 3-deoxyglucosone / average reduction of urinary 3-deoxyglucosone: rats, 10 μmols i.p.; for reduction of plasma 3-deoxyglucosone: plasma at end of 3 h; for average reduction of urinary 3-deoxyglucosone: urine 3 h before vs 3 h after, normalized to creatinine
Method: Urine was collected from six rats for three hours. A plasma sample was also obtained. The animals were then given 10 μmols of either sorbitollysine, mannitollysine, or galactitollysine by intraperitoneal injection. Urine was collected for another three hours, and a plasma sample obtained at the end of the three hours. 3-deoxyglucosone was measured in the samples, as described in Example 5, below, and variable volumes were normalized to creatinine. The average reduction of urinary 3-deoxyglucosone was 50% by sorbitollysine, 35% by mannitollysine and 35% by galactitollysine. Plasma 3-deoxyglucosone was reduced 40% by sorbitollysine, 58% by mannitollysine and 50% by galactitollysine.
Three rats were treated as in b), immediately above, except meglumine (100 μmols) was injected intraperitoneally instead of the above-mentioned lysine derivatives. Three hours after the injection the average 3-deoxyglucosone concentrations in the urine were decreased 42%.
3DG was measured by GC-MS after deionization of the sample. 3DG was derivatized with a 10-fold excess of diaminonaphthalene in PBS. Ethyl acetate extraction gave a salt free fraction which was converted to the trimethyl silyl ethers with Tri-Sil (Pierce). Analysis was performed on a Hewlett-Packard 5890 selected ion monitoring GC-MS system. GC was performed on a fused silica capillary column (DB-5,25 mx.25 mm) using the following temperature program: injector port 250° C., initial column temperature 150° C. which was held for 1 minute, then increased to 290° C. at 16° C./minute and held for 15 minutes. Quantitation of 3DG employed selected ion monitoring using an internal standard of U-13C-3DG.

desmosines [8] = assay: Lung desmosine levels in STZ-diabetic mice; format: in vivo; conditions: regardless of whether diabetic
Method: as §1
Lung tissues from mice made diabetic with STZ was excised and analyzed for desmosine levels. The levels of desmosines in diabetic mice were greater than non-diabetic mice.

[9] = individual treated diabetic rats

Structure (SMILES): O=C(CN1CCOCC1)[C@@H](O)[C@H](O)[C@H](O)CO [1-deoxy-1-morpholinofructose]
- aorta desmosine levels compared to untreated diabetic rats (desmosines [1]; diabetic rats, P=0.104): decrease in desmosine levels
- aorta desmosine pmD/mgP (desmosines [1]; [9]): 3809 pmD/mgP and 2558 pmD/mgP and 2842 pmD/mgP and 2906 pmD/mgP and 3633 pmD/mgP and 3681 pmD/mgP
- skin desmosine levels compared to untreated diabetic animals (desmosines [2]; diabetic animals, P=0.00242): lower levels of desmosines
- skin desmosine content pmD/mgP (desmosines [2]; [9]): 63.1 pmD/mgP and 67.9 pmD/mgP (2×) and 88.1 pmD/mgP and 64.3 pmD/mgP and 65.8 pmD/mgP and 65.1 pmD/mgP and 66.8 pmD/mgP

Structure (SMILES): O=CC(=O)C[C@H](O)[C@H](O)CO [3DG, 3-deoxyglucosone, reference compound]
- effect on collagen migration (crosslinking) ([3]; collagen type I with 5 mM 3DG): caused the collagen to migrate as if it had a higher molecular weight

Structure (SMILES): O=S(=O)([O-])[O-].[Cu+2] [Copper sulfate]
- IC50 (Amadorase [4]): ~1 µM

Structure (SMILES): N=C(N)NCCC[C@H](N)C(=O)O [arginine]
- inhibition of 3DG induced collagen crosslinking ([3]; collagen type I with 5 mM 3DG plus 10 mM arginine): fewer high molecular bands

Structure (SMILES): N[C@@H](CCCCNCC(=O)[C@@H](O)[C@H](O)[C@H](O)CO)C(=O)O [fructoselysine]
- time of peak 3DF excretion in urine after FL bolus [5]: about 4 hours
- decrease of level of collagen 1A1 RNA [6]: 40%
- 3DG (mM) after 24 hours (Amadorase [7]; reaction 1: Amadorase +, ATP +): 1.58 mM
- FL3P (mM) after 24 hours (Amadorase [7]; reaction 1: Amadorase +, ATP +): 0.2 mM
- 3DG (mM) after 24 hours (Amadorase [7]; reaction 2: Amadorase +, ATP −): 0.08 mM
- FL3P (mM) after 24 hours (Amadorase [7]; reaction 2: Amadorase +, ATP −): 0.0 mM
- 3DG (mM) after 24 hours (Amadorase [7]; reaction 3: Amadorase −, ATP +): 0.09 mM
- FL3P (mM) after 24 hours (Amadorase [7]; reaction 3: Amadorase −, ATP +): 0.0 mM
- 3DG (mM) after 24 hours (Amadorase [7]; reaction 4: Amadorase −, ATP −): 0.08 mM
- FL3P (mM) after 24 hours (Amadorase [7]; reaction 4: Amadorase −, ATP −): 0.0 mM

Structure (SMILES): N[C@@H](CCCCNC[C@H](O)[C@@H](O)[C@@H](O)[C@H](O)CO)C(=O)O [galactitollysine]
- reduction of plasma 3-deoxyglucosone (3-deoxyglucosone): 50%
- average reduction of urinary 3-deoxyglucosone (3-deoxyglucosone): 35%

Structure (SMILES): N[C@@H](CCCCNC[C@@H](O)[C@@H](O)[C@H](O)[C@H](O)CO)C(=O)O [mannitollysine]
- reduction of plasma 3-deoxyglucosone (3-deoxyglucosone): 58%
- average reduction of urinary 3-deoxyglucosone (3-deoxyglucosone): 35%

Structure (SMILES): CNC[C@H](O)[C@@H](O)[C@H](O)[C@H](O)CO [meglumine, reference compound]
- decrease of average 3-deoxyglucosone concentration in urine (3-deoxyglucosone; three rats, 100 μmols i.p., three hours after injection): 42%
- lung desmosine levels compared to untreated mice (desmosines [8]): less than mice not so treated

Structure (SMILES): N[C@@H](CCCCNC[C@H](O)[C@@H](O)[C@H](O)[C@H](O)CO)C(=O)O [sorbitollysine]
- reduction of plasma 3-deoxyglucosone (3-deoxyglucosone): 40%
- average reduction of urinary 3-deoxyglucosone (3-deoxyglucosone): 50%
